# Assay results as given in patent publication US20130072448A1, “Drug Combination Comprising A Glycolysis Inhibitor And A Tyrosine Kinase Inhibitor” (URIFER LTD., priority 2011, published 2013).
# Assays:
# [1] = test system: human foreskin cells (FS11); experiment: Dead cells fraction by FACS (PI), normal FS11 cells; format: cell-based; settings: up to 1000 μM DG and 1 μM compound 0260, alone or in combinations
# Procedure: (§1) Florescence assisted cell sorting (FACS) was performed as described in Pasder O, et al. [Pasder O, et al. Oncogene 2006; 25(30):4194-206]. Cells were rinsed twice with cold PBS, and then harvested by treatment with trypsin. Suspended cells were washed twice in 10 ml cold PBS and centrifuged at 500 g for 5 min. In cell cycle analyses, the pellet was resuspended in 200 μl cold PBS and cells were stained in the dark with 200 μl propidium iodide (PI) solution (20 mM Tris, pH 8, 1 mM NaCl, 0.1% (v/v) NP-40, 1.4 mg/ml RNase A, 0.05 mg/ml PI) for 30 min at […]. In experiments to determine the fraction of dead cells in a population of cells, the detergent NP-40 was omitted. The total cellular DNA content was determined using a Becton Dickinson flow cytometer (FACSCalibur). The data were analyzed using Cell Quest Pro software (Becton Dickinson) and ModFit LT software.
# (§2) To study the effect of various combinations of Fer and glycolysis inhibitors on cell cycle progression, various concentrations of 0260 and DG alone and in combination were tested in Hep3B liver cancer cells and on human foreskin cells (FS11) as a non-cancer controls.
# [2] = test system: HCT116 colon cancer cells; experiment: Dead cells fraction by FACS (PI), HCT116; format: cell-based; settings: compounds alone or in combination
# Procedure: as §1
# [3] = test system: Hep3B liver cancer cells; experiment: Dead cells fraction by FACS (PI), Hep3B; format: cell-based, human; settings: compounds alone or in combination
# Procedure: as §1, §2
# [4] = molecular target: T1, Fer (Homo sapiens, UniProt P16591); experiment: in-vivo Fer activity assay: auto-phosphorylation of Fer in HCT116 CC cells (IP, anti-phosphotyrosine western blot); format: cell-based; settings: serum deprived 24 h with 2 μM 0260, 20 mM H2O2 15 min before harvest
# T1 construct: endogenous in cells; host or cells: HCT116 colon carcinoma cells
# T1 sequence (P16591 whole entry): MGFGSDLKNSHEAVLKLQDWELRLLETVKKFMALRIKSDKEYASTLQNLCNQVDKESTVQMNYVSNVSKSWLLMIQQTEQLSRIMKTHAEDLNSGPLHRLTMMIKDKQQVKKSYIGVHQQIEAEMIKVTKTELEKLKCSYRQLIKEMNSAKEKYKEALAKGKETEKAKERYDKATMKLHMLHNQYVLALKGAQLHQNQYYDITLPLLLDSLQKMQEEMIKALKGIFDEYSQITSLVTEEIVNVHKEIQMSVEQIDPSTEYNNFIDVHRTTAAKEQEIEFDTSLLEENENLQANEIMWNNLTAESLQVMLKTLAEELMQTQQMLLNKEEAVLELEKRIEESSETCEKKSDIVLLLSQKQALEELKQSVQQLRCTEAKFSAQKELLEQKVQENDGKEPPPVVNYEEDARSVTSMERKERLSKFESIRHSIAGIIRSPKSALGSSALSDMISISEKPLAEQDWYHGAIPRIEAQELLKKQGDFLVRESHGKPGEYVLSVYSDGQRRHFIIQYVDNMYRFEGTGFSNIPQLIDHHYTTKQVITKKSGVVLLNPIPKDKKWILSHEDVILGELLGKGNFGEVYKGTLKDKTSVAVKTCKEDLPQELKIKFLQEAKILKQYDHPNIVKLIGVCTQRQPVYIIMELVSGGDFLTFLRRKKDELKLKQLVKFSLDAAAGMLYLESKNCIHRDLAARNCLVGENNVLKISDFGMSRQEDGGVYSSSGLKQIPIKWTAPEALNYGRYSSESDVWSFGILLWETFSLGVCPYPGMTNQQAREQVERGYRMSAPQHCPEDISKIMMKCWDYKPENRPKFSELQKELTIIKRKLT
# Procedure: HCT116 CC cells were deprived of serum for 24 h in the presence of 2 μM 0260 or 0.5% DMSO (the solvent). 15 min before harvest cells were treated with 20 mM H2O2— for activation and auto-phosphorylation of Fer. Protein lysates were prepared from cells: starved in the presence of DMSO and treated with H2O2 (1), starved in the presence of 0260 and treated with H2O2 (2), and from untreated cells (3). Fer was immuno-precipitated, resolved in SDS-PAGE and reacted with anti-phosphotyrosine (pY— upper panel) or anti-Fer antibodies (lower panel) in a western blot analysis.
# After extraction of cellular proteins, a protein sample of 750-1000 μg was diluted 3fold with TGET buffer (20 mM Tris-HCl (Ph7.5), 1 mM EDTA, 0.1% Triton X100 and 10% Glycerol) with […] and protease inhibitors and incubated with the indicated antibody at a dilution of 1:100 overnight at 4° C. with shaking. At the end of the incubation, 25 μl Protein A/G suspension was added bound to agarose beads. The mixture was shaken for another 90 min at 4° C. The immune complex precipitate was obtained after centrifugation for 20 min at maximum speed and then washed three times in extraction buffer: twice with buffer TGET NaCl 150 mM and once with TGET NaCl 75 mM. The precipitate was suspended in 2× loading buffer. […]
SMILES,dead cells fraction [1],dead cells fraction [2],dead cells fraction [3],inhibition of Fer auto-phosphorylation [4]
"O=CC[C@@H](O)[C@H](O)[C@H](O)CO [DG, 2-deoxyglucose, reference compound]",only minor effects,only minor effect,only minor effect,
"CC(C)c1ccc(-c2cn3nc(N4CCC(CN5CCN(C)CC5)CC4)sc3n2)cc1 [compound 0260, 6-(4-isopropyl-phenyl)-2-{4-[(4-methyl-piperazin-1-yl)methyl]piperidin-1-yl}imidazo[2,1-b][1,3,4]thiadiazole]",only minor effects,only minor effect,only minor effect,efficient inhibition
